Data as given in patent publication US11807646B2, “4-hydroxypiperidine derivatives and their use as inhibitors of ubiquitin specific protease 19 (USP19)” (ALMAC DISCOVERY LIMITED, priority 2018, dated 2023).

Target: USP19 (Homo sapiens (Human), UniProt O94966)
Test: USP19 fluorescence polarization (FP) homogeneous assay with Ubiquitin-Lys-TAMRA substrate
Assay type: biochemical
Details: full-length USP19 2.5 nM, Ub substrate 500 nM, 30 min pre-incubation at rt; average of at least two duplicate experiments
Experimental: Unless otherwise stated, all other reagents were purchased from Sigma. Enzymatic reactions were conducted in black flat bottom polystyrene 384-well plates (Nunc) and 30 μL total volume. […] Inhibitors were stored as 10 mM DMSO stocks in an inert environment (low humidity, dark, low oxygen, room temperature) using the Storage Pod System and serial dilutions were prepared in buffer just prior to the assay (from 200 μM to 2 pM, 8-18 data point curve). Following incubation at rt for 30 min, the enzymatic reactions were initiated by dispensing the Ub substrate (500 nM, 10 μL). FP was measured every 15 min over a period of 90 min (within the linear range of the assay) using a Synergy 4 plate reader (BioTek) exciting at 530 nm and measuring the amount of parallel and perpendicular light at 575 nm. The FP signal was subsequently normalized to the no compound control.

Chain of USP19 (O94966 whole entry): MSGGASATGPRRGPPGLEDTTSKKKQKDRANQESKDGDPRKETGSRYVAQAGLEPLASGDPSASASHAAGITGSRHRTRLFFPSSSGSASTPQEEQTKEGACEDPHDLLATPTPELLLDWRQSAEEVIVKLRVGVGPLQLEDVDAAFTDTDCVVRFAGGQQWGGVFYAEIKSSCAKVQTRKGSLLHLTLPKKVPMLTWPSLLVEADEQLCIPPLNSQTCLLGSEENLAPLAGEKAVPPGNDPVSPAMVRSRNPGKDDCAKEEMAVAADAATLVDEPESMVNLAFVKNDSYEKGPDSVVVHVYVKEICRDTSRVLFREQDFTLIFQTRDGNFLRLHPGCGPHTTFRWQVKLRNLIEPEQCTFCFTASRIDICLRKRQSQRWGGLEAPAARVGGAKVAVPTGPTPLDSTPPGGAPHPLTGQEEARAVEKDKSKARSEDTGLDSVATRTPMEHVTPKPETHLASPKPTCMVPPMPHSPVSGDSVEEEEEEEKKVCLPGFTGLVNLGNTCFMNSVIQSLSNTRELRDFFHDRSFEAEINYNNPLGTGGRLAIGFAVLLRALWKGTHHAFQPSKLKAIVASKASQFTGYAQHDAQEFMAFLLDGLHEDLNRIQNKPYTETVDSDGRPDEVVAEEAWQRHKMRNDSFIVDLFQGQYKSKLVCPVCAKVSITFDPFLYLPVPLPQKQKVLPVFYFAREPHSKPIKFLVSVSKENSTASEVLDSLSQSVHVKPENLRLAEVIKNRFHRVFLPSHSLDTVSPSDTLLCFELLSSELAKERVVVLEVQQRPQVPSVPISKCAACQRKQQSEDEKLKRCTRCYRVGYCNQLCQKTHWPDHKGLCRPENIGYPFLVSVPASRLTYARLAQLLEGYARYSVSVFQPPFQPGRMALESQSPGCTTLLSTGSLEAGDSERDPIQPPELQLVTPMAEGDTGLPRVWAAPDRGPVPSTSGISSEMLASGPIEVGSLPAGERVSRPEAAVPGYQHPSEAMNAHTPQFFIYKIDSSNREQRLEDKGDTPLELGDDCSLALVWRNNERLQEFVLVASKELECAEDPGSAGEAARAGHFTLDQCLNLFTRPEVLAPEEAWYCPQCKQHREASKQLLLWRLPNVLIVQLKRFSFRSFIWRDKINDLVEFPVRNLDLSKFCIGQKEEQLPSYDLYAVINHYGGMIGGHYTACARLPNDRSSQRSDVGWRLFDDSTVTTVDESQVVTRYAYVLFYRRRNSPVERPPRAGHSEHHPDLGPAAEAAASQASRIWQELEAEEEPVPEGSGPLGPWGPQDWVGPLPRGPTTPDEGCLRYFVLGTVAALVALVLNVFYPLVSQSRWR

| IC50 | SMILES |
| --- | --- |
| 50 to 250 µM | CC(CC(=O)N1CCC(O)(CN2CC(Cc3ccccc3)CC2=O)C(C)(C)C1)c1ccccc1 (centres unmarked) [Example 44, 4-Benzyl-1-((4-hydroxy-3,3-dimethyl-1-(3-phenylbutanoyl)piperidin-4-yl)methyl)pyrrolidin-2-one] |
| 50 to 250 µM | C[C@H](CC1CCCCC1)C(=O)N1CC[C@](O)(Cn2cc(N=S(C)(C)=O)c(-c3ccccc3F)cc2=O)C(C)(C)C1 [Example 65, 1-(((R)-1-((R)-3-Cyclohexyl-2-methylpropanoyl)-4-hydroxy-3,3-dimethylpiperidin-4-yl)methyl)-5-((dimethyl(oxo)-λ^6-sulfaneylidene)amino)-4-(2-fluorophenyl)pyridin-2(1H)-one] |
| 0.5 to 5 µM | C[C@H](CC1CCCCC1)C(=O)N1CC[C@@](O)(Cn2cc(N=S(C)(C)=O)c(-c3ccccc3F)cc2=O)C(C)(C)C1 [Example 66, 1-(((S)-1-((R)-3-Cyclohexyl-2-methylpropanoyl)-4-hydroxy-3,3-dimethylpiperidin-4-yl)methyl)-5-((dimethyl(oxo)-λ^6-sulfaneylidene)amino)-4-(2-fluorophenyl)pyridin-2(1H)-one] |
| 0.5 to 5 µM | O=C1COCCN1CC1(O)CCN(C(=O)N2CCOC[C@H]2c2ccccc2)CC12CCCC2 (stereo partly drawn) [Example 117, 4-((10-Hydroxy-7-((R)-3-phenylmorpholine-4-carbonyl)-7-azaspiro[4.5]decan-10-yl)methyl)morpholin-3-one] |
| 5 to 50 µM | C[C@H](CC(F)(F)F)C(=O)N1CCC(O)(Cn2ccc3ccc(F)cc3c2=O)C2(CCCC2)C1 (stereo partly drawn) [Example 135, 7-Fluoro-2-((10-hydroxy-7-((R)-4,4,4-trifluoro-2-methylbutanoyl)-7-azaspiro[4.5]decan-10-yl)methyl)isoquinolin-1(2H)-one] |
